Data reported in PMC5061317, “Transactivation Assays to Assess Canine and Rodent Pregnane X Receptor (PXR) and Constitutive Androstane Receptor (CAR) Activation” (PLoS ONE, 2016).
“And” between values parts separate entries of the source, which are not always exact repeats. Identical values can stand only once. Counter-ions that a name gives are not always drawn.

How the values were obtained:
[1] = biological target: T1, rat CAR3 (Rattus norvegicus, UniProt Q9QUS1, INS280APYLT); test: Rat CAR3 transactivation assay with CYP3A4 promoter/enhancer reporter (rCAR3/3A4); assay type: cell-based; conditions: 10 μM, 48 h, above DMSO treated cells, mean ± SE
T1 construct: expressed in transfected cells; host or cells: HepG2 (transient transfection)
T1 sequence (Q9QUS1 with tags, fused parts or gaps INS280APYLT): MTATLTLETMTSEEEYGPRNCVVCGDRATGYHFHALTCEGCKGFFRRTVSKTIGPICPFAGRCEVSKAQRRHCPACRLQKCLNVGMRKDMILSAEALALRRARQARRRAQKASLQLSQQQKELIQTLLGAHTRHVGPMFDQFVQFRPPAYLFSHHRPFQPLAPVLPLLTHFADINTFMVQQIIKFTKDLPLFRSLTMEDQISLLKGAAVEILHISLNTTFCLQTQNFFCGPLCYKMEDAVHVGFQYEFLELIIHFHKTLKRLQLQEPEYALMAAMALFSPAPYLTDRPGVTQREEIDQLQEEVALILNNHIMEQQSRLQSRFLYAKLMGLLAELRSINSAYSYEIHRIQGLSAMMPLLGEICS
T1 sequence (P19793 1-462 partner): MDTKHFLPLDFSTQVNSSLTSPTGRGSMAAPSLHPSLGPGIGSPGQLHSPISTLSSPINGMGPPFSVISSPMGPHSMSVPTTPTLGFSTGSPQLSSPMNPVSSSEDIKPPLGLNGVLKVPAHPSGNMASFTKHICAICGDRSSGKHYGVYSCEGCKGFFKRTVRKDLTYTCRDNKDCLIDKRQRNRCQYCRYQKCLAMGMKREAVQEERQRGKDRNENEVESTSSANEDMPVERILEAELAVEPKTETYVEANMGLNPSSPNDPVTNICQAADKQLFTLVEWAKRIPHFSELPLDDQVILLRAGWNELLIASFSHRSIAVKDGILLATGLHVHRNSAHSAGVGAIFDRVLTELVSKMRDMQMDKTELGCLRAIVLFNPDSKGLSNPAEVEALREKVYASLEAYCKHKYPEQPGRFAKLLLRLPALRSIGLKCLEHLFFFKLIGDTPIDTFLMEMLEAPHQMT
Description: (§1) To construct an expression vector harboring canine CAR3, reference CAR sequence (CAR1) for canine (Accession number: FJ202015) was amplified from C. familiaris liver cDNA. PCR conditions were 98°C for 2 min, 30 cycles of 98°C for 30 sec and 72°C for 1 min, followed by 72°C for 7 min and cooling to 4°C. The resulting PCR product was cloned into the pCR2.1 vector for sequence analysis and subsequently cloned into a pCDNA 3.1 expression vector (Life Technologies, Carlsbad, CA). […] Canine CAR1 was mutated to obtain CAR3 by introducing […] motif. This was performed using forward primer: 5’- […] -3’ and reverse primer: 5’- […] -3’ in concert with QuikChange Lightning mutagenesis kit (Agilent) according to manufacturer’s instructions. The presence of correct canine CAR3 was verified by sequence analysis. […]
(§2) Assessment of cell viability and transcriptional activation was performed in the same wells using the CellTiter-Fluor cell viability assay and ONE-Glo Luciferase assay. Fluorescence was determined on a BioTek Synergy 2 Luminometer (BioTek Instruments, Winooski, VT) with excitation at 400 nm and emission at 510 nm. Following viability determination luminescence was monitored.
(§3) Fluorescent light units were utilized to normalize for viable cell number in the luciferase (transcriptional activation) assay and expressed as the average of three determinations/chemical agent and concentration. […]

[2] = biological target: T1, rat CAR3; test: Rat CAR3 transactivation assay with CYP2B6 promoter/enhancer reporter (rCAR3/2B6); assay type: cell-based; conditions: 10 μM, 48 h, above DMSO treated cells, mean ± SE
Description: as §1, §2, §3

[3] = system: canine PXR; test: Canine PXR transactivation assay (HepG2 transiently transfected, CYP3A4 luciferase reporter); conditions: 48 h
Description: To generate canine PXR (Accession number: XM_535750.3) with a start codon replicating that of human PXR (Accession number: AY091855), a Canis lupus familiaris liver cDNA was employed as the template. PCR conditions were 98°C for 2 min, 35 cycles of 98°C for 1 min, 59°C for 1 min and 72°C for 1 min 45 sec, followed by 72°C for 7 min and cooling to 4°C.
(§4) HepG2 cells were seeded in 10-cm cell culture dishes and incubated until 60–70% confluency (about 5 days). For transfections, dishes were rinsed with phosphate buffered saline (PBS) and cells incubated for 1–4 h in OptiMEM (Life Technologies). LipofectAMINE 2000 (Life Technologies) was used at a 2:1 ratio (μl of transfection reagent to μg of DNA). For transfections involving canine and rat CAR3, 24 μg of total DNA was used (9 μg of luciferase reporter construct, 7.5 μg of either empty expression vector or CAR expression construct and 7.5 μg of the hRXRα construct). For transfections with the canine PXR, 21 μg of total DNA was employed (12 μg of luciferase reporter containing CYP3A4 proximal and distal enhancers and 9 μg of either empty expression vector or plasmid containing canine PXR). Transfected HepG2 cells were incubated at 37°C, 5% CO2 for 19–24 h. The cells were then trypsinized with TrypLE Express solution (Life Technologies) and either frozen in the presence of 10% DMSO for future use or seeded into clear bottom 96-well assay plate at a density of 5x10^4 cells/well and incubated at 37°C, 5% CO2 for 24 h.
(§5) For luciferase reporter assays involving transient transfectants, either freshly transfected cells or cells that have been stored in liquid N2 were seeded in 96-well plates as described above. For the rPXR stable cell line, cells were seeded into a 96-well plate at a density of 2x10^4 cells/well. Following a 24 h recovery, transiently transfected cells or stably integrated rat PXR cells were treated with various chemicals dissolved in DMSO in triplicate wells. Phenobarbital was the only compound that was dissolved in sterile water. […] All treatments were performed for 48 h.
as §2
(§6) Fluorescent light units were utilized to normalize for viable cell number in the luciferase (transcriptional activation) assay and expressed as the average of three determinations/chemical agent and concentration. The average luminescent units were divided by the average for solvent control to determine the fold activation. Data is expressed as mean ± standard error (SE) of three separate experiments performed in triplicate. The data was further normalized by dividing the values for each chemical by values obtained from assays with empty expression vector control. One-way multiple comparison ANOVA test in concert with Uncorrected Fisher’s LSD posttest was used to compare treatment groups with the negative controls. The significance threshold was set at p < 0.01. All statistical analyses were performed using Prism V6.0c (GraphPad, San Diego, CA). To determine receptor activation kinetics for positive controls, EC50 and EMAX values were calculated using nonlinear regression analysis of typical log dose-response curves using Prism V6.0c (GraphPad, San Diego, CA).

[4] = biological target: canine CAR3 (Canis lupus familiaris, UniProt B6E443, INS263APYLT); conditions: 10 μM, 48 h, above DMSO treated cells, mean ± SE
Description: To construct an expression vector harboring canine CAR3, reference CAR sequence (CAR1) for canine (Accession number: FJ202015) was amplified from C. familiaris liver cDNA. PCR conditions were 98°C for 2 min, 30 cycles of 98°C for 30 sec and 72°C for 1 min, followed by 72°C for 7 min and cooling to 4°C. The resulting PCR product was cloned into the pCR2.1 vector for sequence analysis and subsequently cloned into a pCDNA 3.1 expression vector (Life Technologies, Carlsbad, CA). […] Canine CAR1 was mutated to obtain CAR3 by introducing […] motif. This was performed using forward primer: 5’- […] -3’ and reverse primer: 5’- […] -3’ in concert with QuikChange Lightning mutagenesis kit (Agilent) according to manufacturer’s instructions. The presence of correct canine CAR3 was verified by sequence analysis. CYP2B6 luciferase reporter vector containing the XREM-PBREM promoter and enhancer was obtained from Dr. Omiecinski (Penn State University) and has been described previously. To generate rat CAR3, a plasmid containing reference CAR (CAR1) underwent mutagenesis as described above using 5’- […] -3’ as the forward primer and 5’- […] -3’ as the reverse primer. […] Firefly luciferase reporter construct harboring CYP3A4 proximal and distal enhancer regions has been described earlier.
as §4, with “The cells were then trypsinized with TrypLE Express solution (Life Technologies) and either frozen in the presence of 10% DMSO for future use or seeded into clear bottom 96-well assay plate at a density of 5x10^4 cells/well and incubated at 37°C, 5% CO2 for 24 h.” left out
as §2, §3

[5] = biological target: T2, rat PXR (Rattus norvegicus, UniProt Q9R1A7); test: Rat PXR transactivation assay (rPXR stable cell line, CYP3A4 luciferase reporter); conditions: 48 h
T2 sequence (Q9R1A7 1-431): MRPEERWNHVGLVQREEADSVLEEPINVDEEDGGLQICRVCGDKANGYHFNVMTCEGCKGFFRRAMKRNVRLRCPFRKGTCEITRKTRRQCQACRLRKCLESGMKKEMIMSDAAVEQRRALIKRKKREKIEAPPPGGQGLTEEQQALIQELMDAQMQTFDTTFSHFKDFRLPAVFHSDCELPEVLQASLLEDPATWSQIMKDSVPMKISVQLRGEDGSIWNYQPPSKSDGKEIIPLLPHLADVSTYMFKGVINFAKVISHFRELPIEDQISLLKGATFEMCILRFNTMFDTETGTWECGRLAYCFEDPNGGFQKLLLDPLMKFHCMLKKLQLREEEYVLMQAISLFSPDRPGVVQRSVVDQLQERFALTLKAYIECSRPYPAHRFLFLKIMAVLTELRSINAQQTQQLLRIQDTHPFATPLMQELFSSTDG
Description: Human hepatoma cell line, HepG2 was obtained from American Type Culture Collection (Rockville, MD) and maintained in DMEM supplemented with 10% FBS, 100 U/ml penicillin and 100 μg /ml streptomycin at 37°C, 5% CO2. The stable cell line, rPXR, harboring rat PXR and the CYP3A4 promoter and enhancer linked to luciferase was produced and maintained as described previously.
as §5, §2, §6

[6] = 10 μM, above DMSO treated cells, mean ± SE
[7] = 100 μM, above DMSO treated cells, mean ± SE
[8] = panel of 19 compounds, concentration not given

canine CAR3, sequence (B6E443 entry or part of it INS263APYLT, one chain of several): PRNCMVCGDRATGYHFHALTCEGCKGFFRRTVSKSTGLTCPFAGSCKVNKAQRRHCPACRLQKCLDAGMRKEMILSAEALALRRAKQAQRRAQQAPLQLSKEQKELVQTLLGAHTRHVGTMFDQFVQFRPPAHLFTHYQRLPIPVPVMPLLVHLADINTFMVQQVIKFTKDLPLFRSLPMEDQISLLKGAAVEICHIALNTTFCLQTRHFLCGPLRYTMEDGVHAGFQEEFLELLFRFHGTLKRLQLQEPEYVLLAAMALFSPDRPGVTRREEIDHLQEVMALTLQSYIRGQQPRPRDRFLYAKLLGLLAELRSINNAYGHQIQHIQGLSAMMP

## O=c1cc(-c2ccccc2)oc2c1ccc1ccccc12 [ANF, α-naphthoflavone]
[1]
  Rat CAR3 Fold Activation, CYP3A4 promoter and enhancer: negligible effect
[2]
  Rat CAR3 Fold Activation, CYP2B6 promoter and enhancer: 3.4 ± 0.8 fold and 3.4 ± 0.8^c fold

## Clc1ccc(-c2nc3sccn3c2C=NOCc2ccc(Cl)c(Cl)c2)cc1 [CITCO, 6-(4-Chlorophenyl)imidazo[2,1-b][1,3]thiazole-5-carbaldehyde O-(3,4-dichlorobenzyl)oxime]
[3]; [6]
  Canine PXR Fold Activation: 5.4 ± 2.1 fold

## CCCCC(CC)COC(=O)c1ccccc1C(=O)OCC(CC)CCCC (stereo not shown) [DEHP, bis (2-ethylhexyl) phthalate]
[4]
  Canine CAR3 Fold Activation, CYP2B6 promoter and enhancer: 4.3 ± 0.8 fold and 4.3 ± 0.8^c fold
  Canine CAR3 Fold Activation, CYP3A4 promoter and enhancer: significant activation only when the CYP2B6 promoter was used
[5]; [6]
  Rat PXR Fold Activation: -

## O=C1Nc2ccc(Cl)cc2[C@@](C#CC2CC2)(C(F)(F)F)O1 [Efavirenz, efavirenz]
[5]; rat, 10 μM
  Rat PXR Fold Activation: 7.5 ± 2.3 fold
[1]
  Rat CAR3 Fold Activation, CYP3A4 promoter and enhancer: 7.4 ± 3.3 fold
[2]
  Rat CAR3 Fold Activation, CYP2B6 promoter and enhancer: 3.9 ± 0.6 fold

## C=C[C@@]1(C)CC(=O)[C@]2(O)[C@@]3(C)[C@@H](O)CCC(C)(C)[C@@H]3[C@H](O)[C@H](OC(C)=O)[C@@]2(C)O1 [Forskolin, forskolin]
[3]; [6]
  Canine PXR Fold Activation: 5.6 ± 1.4 fold
[5]; rat, 10 μM
  Rat PXR Fold Activation: 5.8 ± 0.5 fold

## COc1ccc2[nH]c([S+]([O-])Cc3ncc(C)c(OC)c3C)nc2c1 (stereo not shown) [Omeprazole, omeprazole]
[3]; [7]
  Canine PXR Fold Activation: 9.6 ± 1.3 fold
[5]; rat, 100 μM
  Rat PXR Fold Activation: 9.8 ± 0.9 fold

## CCC1(c2ccccc2)C(=O)NC(=O)NC1=O [Phenobarbital, phenobarbital sodium salt]
[3]; [8]
  Canine PXR Fold Activation: failed to elicit a significant activation
[5]; 1 mM, vehicle water
  Rat PXR activation: failed to elicit significant activation
[5]; [8]
  Rat PXR activation: failed to elicit a significant activation

## CC(=O)[C@H]1[C@H](C#N)C[C@H]2[C@@H]3CC=C4C[C@@H](O)CC[C@]4(C)[C@H]3CC[C@@]21C [Pregnenolone 16α carbonitrile, pregnenolone-16 α -carbonitrile]
[5]; dose-response curve, above 0.1% DMSO
  Emax, rat PXR activation: 11.4 fold
[5]; read-out: EC50, rat PXR activation, dose-response curve, nonlinear regression
  EC50: 0.14 µM

## CCOP(=O)(OCC)C(=Cc1cc(C(C)(C)C)c(O)c(C(C)(C)C)c1)P(=O)(OCC)OCC [SR12813, tetraethyl 2-(3,5-di-tert-butyl-4-hydroxyphenyl)ethenyl-1,1-bisphosphonate]
[4]
  Canine CAR3 Fold Activation, CYP2B6 promoter and enhancer: activation only in the presence of the CYP3A4 promoter
  Canine CAR3 Fold Activation, CYP3A4 promoter and enhancer: 3.1 ± 0.7 fold and 3.1 ± 0.7^d fold
[3]; [6]
  Canine PXR Fold Activation: 60.1 ± 3.1 fold
[3]; dose-response 0.1 to 30 μM, above 0.1% DMSO
  Emax, canine PXR activation: 60.3 ± 5.5 fold and 60.3 fold
[3]; read-out: EC50, canine PXR activation, dose-response 0.1 to 30 μM, nonlinear regression
  EC50: 1.9 ± 0.2 µM
[5]; [6]
  Rat PXR Fold Activation: 6.1 ± 0.6 fold

## Clc1cnc(Oc2ccc(Oc3ncc(Cl)cc3Cl)cc2)c(Cl)c1 [TCPOBOP, 1,4-Bis-[2-(3,5-dichloropyridyloxy)]benzene, 3,3′,5,5′-Tetrachloro-1,4-bis(pyridyloxy)benzene]
[5]; [6]
  Rat PXR Fold Activation: failed to elicit significant activation

## O=C1NC(=O)C(c2ccccc2)(c2ccccc2)N1 [phenytoin]
[3]; [8]
  Canine PXR Fold Activation: failed to elicit a significant activation
[5]; [7]
  Rat PXR Fold Activation: failed to elicit significant activation
[5]; [8]
  Rat PXR activation: failed to elicit a significant activation
